Measurements reported in patent publication US20080113908A1, “Use of CRF receptor agonists for the treatment or Prophylaxis of diseases, for example Neurodegenerative diseases” (SmithKline Beecham plc, priority 2000, published 2008).
Values after ≈ are worked out from the molar mass of the structure shown. Where two headings read alike, the source gives them in different places.

Assays:
GSK-3β = experiment: Western blot of serine-9-phosphorylated GSK-3β (FIG. 5); format: cell-based, rat; conditions: compound alone, 2 hours; CRF 10 nM, LY 294002 75 μM, FSK 30 μM
Text: It was thought that CRF receptor agonists might interact with the PI 3-kinase signalling pathway and exert their neuroprotective effect by phosphorylating and inhibiting the protein GSK-3β,which is pro-apoptotic (M. Pap and G. M. Cooper, J. Biol. Chem., 273(32), 19929-19932, 1998; and M. Hetman et al. J. Neurosci., 1st Apr. 2000, 20(7), 2567-2574; discussed hereinabove). In order to confirm this, the level of GSK-3β phosphorylated at serine-9 (e.g. see D. A. E. Cross, Nature, 378, 785-789, 1995) in control cultures of cerebellar granule neurones was measured using Western blots, and compared to the level of phospho-GSK-3β in the presence of CRF as a model CRF receptor agonist and/or in the presence of the PI 3-kinase inhibitor LY 294002. In order to determine whether elevation of cAMP was involved in any effect, the level of phospho-GSK-3β in cultures in the presence of the known cAMP-elevating agent forskolin (FSK, obtainable e.g. from Calbiochem.) with or without LY 294002 present was also measured. The forskolin acts as a benchmark for cAMP-related effects.
The method used was as follows. […]
Phosphorylation of GSK-3β was detected using an antibody to serine-9-phosphorylated GSK-3β (anti-phospho-GSK-3β (Ser9)) available as catalogue no. […]

PI 3-kinase = conditions: cited from earlier work
[1] = tested on: cerebellar granule neurones; format: cell-based, rat; conditions: 48 h, MTT, sham-treated = 100%
Protocol: Cerebellar granule neurones were used in the examples to test neuroprotection by CRF receptor agonists. Cerebellar granule neurones (CGNs) undergo apoptosis during the first few weeks of postnatal life, and in culture require mildly depolarising concentrations of KCl (25 mM) for their survival and maturation (S. R: D'Mello et al., Proc. Natl. Acad. Sci. USA 90, 10989-10993, 1993). The growth signal provided by KCl depends upon activation of the phosphatidylinositol 3-kinase (PI 3-kinase) pathway, and pharmacological inhibition of PI 3-kinase in differentiated granule neurones leads to apoptotic death in the CGNs (T. M. Miller et al., J. Biol. Chem., 272, 9847-9853, 1997). Thus, cultured CGNs represent a suitable model to study mechanisms of programmed cell death, and to identify putative neuroprotective signalling pathways.
Assay 1: Cerebellar granule neurones prepared from postnatal day 8 Sprague Dawley rat pups were used for experiments on death induced by inhibition of PI 3-kinase. General culture methods are described in S. D. Skaper et al. in Methods in Neurosciences, Vol. 2 (Conn P. M., ed), pp. 17-33. Academic Press, San Diego, 1990. At 8-9 days in vitro (DIV), granule neurone cultures were shifted to phenol red-free Dulbecco's modified Eagle's medium lacking serum, and containing 0.05% bovine serum albumin and 25 mM KCl. Death was induced by addition of the PI 3-kinase inhibitor LY 294002 (75 μM). CRF or CRF agonist peptides (urotensin 1, urocortin, sauvagine) were added at different concentrations (from 0.3nM to 300 nM or 1000 nM) together with LY 294002. Forty-eight hours later neuronal survival was quantified by a colorimetric reaction MTT. Absolute MTT values obtained were normalised for small differences in interexperiment plating densities by scaling to the mean of sham-treated sister cultures (defined as 100%).
Results are shown in Table 1 below and in graphical form in FIG. 1, which show the percentage mean neuronal survival (and standard deviation), when in the presence of the relevant CRF receptor agonists and LY 294002, as a function of agonist concentration. […] Urotensin 1, urocortin and sauvagine were also neuroprotective albeit with lower potency (<1 μM).

[2] = tested on: cerebellar granule neurones; experiment: Assay 3: intracellular cyclic AMP enzyme immunoassay; format: cell-based, rat; conditions: agonist 0 to 30 nM, 15 min, 0.5 mM IBMX
Protocol: Assay 3: The production of cAMP by the CRF receptor agonist peptides CRF, urotensin 1, urocortin and sauvagine was measured as follows. This assay can be used analogously for any putative CRF receptor agonists including non-peptide agonists.
Intracellular cyclic AMP was measured with a cAMP 2-site enzyme immunoassay system (trade mark BIOTRAK, commercially available from Amersham Pharmacia Biotech, PO Box 164, Rainham, Essex RM13 8JZ, United Kingdom, Amersham catalogue number RPN225), based upon the use of a sensitive and highly specific capture antibody for cyclic AMP:
Cerebellar granule neurones were seeded in polylysine-coated […] plates, 3.5×10^5 cells per 48-well, in Basal medium Eagle's containing 10% fetal calf serum, 25 mM KCl, and antibiotics. At 8-9 days in vitro, granule neurone cultures were shifted to serum-free plating medium (0.4 ml) with 0.5 mM IBMX (to inhibit the breakdown of cyclic AMP) for 15 min (37° C.). Wells then received 0.1 ml of test peptide (5× final concentration). Generally 1 μM is the preferable final concentration for a putative CRF agonist under test, though different (e.g. lower) concentrations can be used as shown for the peptide agonists in FIG. 3. Incubation was continued for 15 min. Test medium was removed and the plate placed on dry ice, and stored at −140° C. Cyclic AMP analysis was performed the following day.
Cells were then lysed with the reagent provided with the BIOTRAK kit. Intracellular content of cyclic AMP in the lysates was assayed following the manufacturer's instructions. A standard curve was constructed using the cyclic AMP calibration provided, with the quantity of bound cyclic AMP being inversely proportional to the amount of second (chromogenic) antibody bound to the reaction wells. The colour product was read with an ELISA plate reader, and was a function of the amount of cyclic AMP in the unknown sample.

[3] = tested on: spontaneous hypertensive rats (SHR); experiment: Distal middle cerebral artery occlusion (MCAO), icv dosing (FIG. 7); format: in vivo; conditions: 10 μg/rat icv, 15 min and 2 hours post MCAO; 24 h permanent MCAO
Protocol: The animal protocols are as follows.
Focal ischemia experiments were performed on male spontaneously hypertensive rats (SHR; Taconic Farms, Germantown, N.Y., US) weight range 280-340 g. Body temperature was maintained at 37° C. during all surgical procedures and during recovery from anesthesia (i.e., until normal locomotor activity returned). Animals were anesthetized with pentobarbital (65 mg/kg, i.p.) and underwent permanent, right middle cerebral artery occlusion (MCAO) for 24 h as described previously (F. C. Barone et al., Neuroscience & Biobehavioral Reviews, 16 (1992) 219-33, and F. C. Barone et al., Stroke, 29 (1998) 1937-50). Body temperature was monitored throughout the surgical procedure by a rectal thermometer, and the animals maintained normothermic (37±0.5° C.) via a heating blanket controlled by the thermometer. A needle temperature probe was also inserted into the left temporalis muscle to give an indirect measurement of brain temperature. Actual core and temporalis temperature values were recorded at the time of MCA occlusion. […]
The rats were allowed to recover from surgery on a heating pad while containing to be under the influence of the pentobarbital anesthesia. Once animals were able to right themselves and begin spontaneous movement, they were placed in cages on the heating pads and monitored for any distress until fully recovered from anesthesia. […]

Molecule | phospho-GSK-3β level compared to control CN (GSK-3β) | IC50 (PI 3-kinase) [µM] | IC50 PI 3-kinase activity (PI 3-kinase) [µg/mL] | Mean survival % ([1]; agonist 0.3 nM with LY 294002 75 μM) [%] | Mean survival % ([1]; agonist 1 nM with LY 294002 75 μM) [%] | Mean survival % ([1]; agonist 3 nM with LY 294002 75 μM) [%] | Mean survival % ([1]; agonist 10 nM with LY 294002 75 μM) [%] | Mean survival % ([1]; agonist 30 nM with LY 294002 75 μM) [%] | Mean survival % ([1]; agonist 100 nM with LY 294002 75 μM) [%] | Mean survival % ([1]; agonist 300 nM with LY 294002 75 μM) [%] | Mean survival % ([1]; agonist 1000 nM with LY 294002 75 μM) [%] | cAMP synthesis induced by agonist (FIG. 3) [2] | infarct size [3] | numerical score for neurological deficits [3]
O=c1cc(N2CCOCC2)oc2c(-c3ccccc3)cccc12 [LY 294002, 2-(4-morpholinyl)-8-phenyl-4H-1-benzopyran-4-one] | a decrease compared to control | 1.4 | 0.43 (≈ 1.4 µM) | – | – | – | – | – | – | – | – | – | – | –
NDDPPISIDLTFHLLRNMIEMARIENEREQAGLNRKYLDEV [Urotensin 1, Urotensin 1 (teleost fish, Sigma cat. no. U-7253), CRF receptor agonist peptide] | – | – | – | 42 | 52.89 | 68 | 74.44 | 71.67 | 71.17 | 73.83 | 79.17 | cAMP production increased with agonist concentration | 70-80 mm^3 | 9
